Like-named read-outs stand apart in the source and are kept apart here.
Biological target: T1, EBP-Ig (N-terminal 225 amino acids of the human EPO receptor joined to an Ig heavy chain) (Homo sapiens, UniProt P19235)
T1 construct: Ig heavy chain (fusion partner); made in house; host or cells: NSO cells (secreted into conditioned media)
T1 sequence (P19235 25-250 limits assumed): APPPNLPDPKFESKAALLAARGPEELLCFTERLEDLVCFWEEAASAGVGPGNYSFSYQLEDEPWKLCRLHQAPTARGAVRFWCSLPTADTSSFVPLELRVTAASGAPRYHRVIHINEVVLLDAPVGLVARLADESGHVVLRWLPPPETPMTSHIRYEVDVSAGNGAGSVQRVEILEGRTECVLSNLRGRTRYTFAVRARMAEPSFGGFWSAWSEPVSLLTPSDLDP
Experiment: Inhibition of [125I]EPO binding to immobilized EBP-Ig (EPO binding protein-Ig), scintillation Flash plate competition assay
Conditions: for IC30 μM (Inhibition of EPO binding to EBP-Ig): 0–500 μM test compound; for % inh @ 50 μM (Inhibition of EPO binding to EBP-Ig): 50 μM test compound, average % inhibition
Text: The interaction of biotin and streptavidin is frequently employed to capture and effectively immobilize reagents useful in assay protocols and has been employed here as a simple method to capture and immobilize EBP-Ig. EBP-Ig is initially randomly modified with an amine reactive derivative of biotin to produce biotinylated-EBP-Ig. Use of streptavidin coated plates allows the capture of the biotinylated EBP-Ig on the surface of a scintillant impregnated coated well (Flash plates, NEN-DuPont). […] The amount of light produced was quantified to estimate the amount of ligand binding. The specific assay format was suitable for the multi-well plate capacity of a Packard TopCount Microplate Scintillation counter.
Biotinylated EBP-Ig was prepared as follows. EBP-Ig (3 mL, OD280 2.9) was exchanged into 50 mM sodium bicarbonate, pH 8.5 using a Centriprep 10 ultrafiltration device. The final volume of the exchanged protein was 1.2 mL (OD280 2.6, representing about 2 mg total protein). 10 μL of a 4 mg/ml solution of NHS-LC-Biotin (Pierce) was added and the reaction mixture placed on ice in the dark for two hours. Unreacted biotin was removed by exchange of the reaction buffer into PBS in a Centriprep 10 device and the protein reagent aliquoted and stored at −70° C.
All wells were adjusted to a final DMSO concentration of 5%. […] After all additions were made, the plate was covered with an adhesive top seal and placed in the dark at room temperature overnight. The next day all liquid was aspirated from the wells to limit analyte dependent quench of the signal, and the plates were counted on a Packard TOPCOUNT Microplate Scintillation Counter. […] Corrected total binding (CTB) was calculated as: TB−NSB=CTB. […] Table 1 lists the average % inhibition, and if determined the IC50 and IC30 values for compounds of Formula I, where the compound numbers refer to the compounds in the tables accompanying the preparative examples.

[1] = read-out: IC50, μM (Inhibition of EPO binding to EBP-Ig), 0.5 nM [125I]EPO, concentration reducing corrected total binding to 50%
[2] = read-out: % inh @ 50 μM (Inhibition of EPO binding to EBP-Ig)
[3] = read-out: EPO/EBP-Ig % inh @ 50 μM, Table 7, 50 μM

Cc1ccccc1CNc1cccc(CN(Cc2cccc(Oc3ccccc3)c2)C(CC(=O)O)C(=O)O)c1 (stereo not shown) [compound 69]
EPO/EBP-Ig % inh @ 50 μM (Table 4, 50 μM): −13%

COC(=O)C(CCCCNC(=O)OCc1ccccc1)N(C/C=C/c1cccc(Oc2ccccc2)c1)C/C=C/c1cccc(Oc2ccccc2)c1 (stereo not shown) [compound 176]
EPO/EBP-Ig % inh @ 50 μM (50 μM compound, Table 9): −4%

CC(C)(C)c1ccc(Oc2cccc(/C=C/CN(C/C=C/c3cccc(Oc4ccc(C(C)(C)C)cc4)c3)C(CCC(=O)O)C(=O)O)c2)cc1 (stereo not shown) [compound 104]
IC30 μM (Inhibition of EPO binding to EBP-Ig) (0.5 nM [125I]EPO): 10 µM | % inh @ 50 μM (Inhibition of EPO binding to EBP-Ig) (0.5 nM [125I]EPO): 78% | EPO/EBP-Ig % inh @ 50 μM (Table 6, 50 μM): 78% | IC50 [1]: 30 µM

COC(=O)[C@H](COC(C)(C)C)N(C/C=C/c1cccc(Oc2ccc(C(C)(C)C)cc2)c1)C/C=C/c1cccc(Oc2ccc(C(C)(C)C)cc2)c1 [compound 294]
EPO/EBP-Ig % inh @ 50 μM (50 μM compound, Table 16A): 9%

CC(=O)O.COC(=O)c1cccc(/C=C/CN[C@@H](Cc2ccccc2)C(=O)OC)c1 [compound 361]
EPO/EBP-Ig % inh @ 50 μM (50 μM compound): 24%

O=C(O)CCC(C(=O)O)N(C/C=C/c1ccc(NC(=O)C(F)(F)F)cc1)Cc1ccc(OCc2ccccc2)cc1 (stereo not shown) [compound 85]
EPO/EBP-Ig % inh @ 50 μM (Table 5, 50 μM): 20%

CC(C)(C)OC(=O)CC(C(=O)NCCCOCCCCOCCCNC(=O)C(CC(=O)OC(C)(C)C)N(Cc1ccc(OCc2ccccc2)cc1)Cc1ccc(OCc2ccccc2)cc1)N(Cc1ccc(OCc2ccccc2)cc1)Cc1ccc(OCc2ccccc2)cc1 (stereo not shown) [compound 241]
EPO/EBP-Ig % inh @ 50 μM (Table 11, 50 μM): 2%

COC(=O)C(CCC(=O)OC(C)(C)C)N(C/C=C/c1ccccc1)C/C=C/c1ccccc1 (stereo not shown) [compound 93]
EPO/EBP-Ig % inh @ 50 μM (Table 6, 50 μM): 20%

CC(C)(C)OC(=O)CC[C@H](NC/C=C/c1cccc(Oc2ccc(Cl)c(Cl)c2)c1)C(=O)O [compound 341]
EPO/EBP-Ig % inh @ 50 μM (50 μM compound, Table 19A): 19%

NCCCCC(C(=O)O)N(CC=Cc1cccs1)CC=Cc1cccs1 (stereo not shown) [cpd 50]
EPO/EBP-Ig % inh @ 50 μM (Table 3, 50 μM): −6%

O=C(O)CC(C(=O)O)N(CC=Cc1cccs1)CC=Cc1cccs1 (stereo not shown) [compound 53]
EPO/EBP-Ig % inh @ 50 μM (Table 3, 50 μM): 14%

O=C(O)CC(C(=O)NCCCOCCCCOCCCNC(=O)C(CC(=O)O)N(Cc1ccc(OCc2ccccc2)cc1)Cc1ccc(OCc2ccccc2)cc1)N(Cc1ccc(OCc2ccccc2)cc1)Cc1ccc(OCc2ccccc2)cc1 (stereo not shown) [compound 243]
IC50: 18 µM | IC30 μM (Inhibition of EPO binding to EBP-Ig) (0.5 nM [125I]EPO): 2 µM | inhibition at 50 µM [2]: 75% | inhibition at 50 µM (read-out: EPO/EBP-Ig % inh @ 50 μM, Table 11, 50 μM): 75%

O=C(O)CCC(C(=O)O)N(CC=Cc1cccs1)CC=Cc1cccs1 (stereo not shown) [compound 52]
EPO/EBP-Ig % inh @ 50 μM (Table 3, 50 μM): 21%

COC(=O)[C@H](COC(C)(C)C)N(C/C=C/c1ccc(-c2ccccc2)cc1)C/C=C/c1ccc(-c2ccccc2)cc1 [compound 291]
EPO/EBP-Ig % inh @ 50 μM (50 μM compound, Table 16A): 17%

O=C(O)CC(C(=O)O)N(Cc1cccc(NCc2cccc(Br)c2)c1)Cc1cccc(Oc2ccccc2)c1 (stereo not shown) [compound 67]
EPO/EBP-Ig % inh @ 50 μM (Table 4, 50 μM): −8%

CC(C)(C)c1ccc(Oc2cccc(/C=C/C(=O)N(Cc3cccc(Oc4ccccc4)c3)C(CCCCN)C(=O)O)c2)cc1 (stereo not shown) [compound 288]
EPO/EBP-Ig % inh @ 50 μM (50 μM compound, Table 15): 27%

O=C(O)CCC(C(=O)O)N(C/C=C/c1ccc(NC(=O)c2ccc([N+](=O)[O-])cc2)cc1)Cc1ccc(OCc2ccccc2)cc1 (stereo not shown) [compound 91]
EPO/EBP-Ig % inh @ 50 μM (Table 5, 50 μM): 19%

COC(=O)C(CCCCNC(=O)OC(C)(C)C)N(C/C=C/c1cccc([N+](=O)[O-])c1)C/C=C/c1cccc([N+](=O)[O-])c1 (stereo not shown) [compound 183]
EPO/EBP-Ig % inh @ 50 μM (50 μM compound, Table 9): 36% | % inh @ 50 μM (Inhibition of EPO binding to EBP-Ig) (0.5 nM [125I]EPO): 36%

Cc1ccc(Oc2cccc(/C=C/C(=O)N(Cc3cccc(Oc4ccccc4)c3)C(CCCCN)C(=O)O)c2)cc1 (stereo not shown) [compound 287]
EPO/EBP-Ig % inh @ 50 μM (50 μM compound, Table 15): 36% | % inh @ 50 μM (Inhibition of EPO binding to EBP-Ig) (0.5 nM [125I]EPO): 36%

COC(=O)C(CCC(=O)O)NCC=Cc1cccc(Oc2ccccc2)c1 (stereo not shown) [cpd 325, N-(3-Phenoxycinnamyl)Glu-OMe]
EPO/EBP-Ig % inh @ 50 μM (50 μM compound, Table 19A): 6%

NCCCCC(C(=O)O)N(Cc1cccc(Oc2ccccc2)c1)C(=O)C=Cc1cccc(OCc2ccccc2)c1 (stereo not shown) [compound 286]
IC30 μM (Inhibition of EPO binding to EBP-Ig) (0.5 nM [125I]EPO): 35 µM | inhibition at 50 µM [2]: 46% | inhibition at 50 µM (read-out: EPO/EBP-Ig % inh @ 50 μM, 50 μM compound, Table 15): 46% | IC50 [1]: 65 µM

CC(C)(C)OC[C@@H](C(=O)O)N(C/C=C/c1ccc(-c2ccccc2)cc1)C/C=C/c1ccc(-c2ccccc2)cc1 [compound 301]
EPO/EBP-Ig % inh @ 50 μM (50 μM compound, Table 16A): 25%

COC(=O)C(CCC(=O)OC(C)(C)C)N(CC=Cc1cccc(Oc2ccccc2)c1)CC=Cc1cccc(Oc2ccccc2)c1 (stereo not shown) [cpd 96, N,N-bis(3-Phenoxycinnamyl)Glu(O-t-Bu)-OMe]
EPO/EBP-Ig % inh @ 50 μM (Table 6, 50 μM): −5%

COC(=O)C(CCCCNC(=O)OC(C)(C)C)N(C/C=C/c1cccc(Oc2ccccc2)c1)C/C=C/c1cccc(Oc2ccccc2)c1 (stereo not shown) [compound 180]
EPO/EBP-Ig % inh @ 50 μM (50 μM compound, Table 9): −4%

COC(=O)[C@H](CCCCNC(=O)OC(C)(C)C)NC/C=C/c1cccc(Oc2ccccc2)c1 [compound 316]
EPO/EBP-Ig % inh @ 50 μM (50 μM compound, Table 18A): 20%

O=C(O)CCC(=O)NCCCCC(C(=O)NCCCCCCCCCCCCNC(=O)C(CCCCNC(=O)CCC(=O)O)N(Cc1ccc(OCc2ccccc2)cc1)Cc1ccc(OCc2ccccc2)cc1)N(Cc1ccc(OCc2ccccc2)cc1)Cc1ccc(OCc2ccccc2)cc1 (stereo not shown) [compound 270]
IC30 μM (Inhibition of EPO binding to EBP-Ig) (0.5 nM [125I]EPO): 7 µM | EPO/EBP-Ig % inh @ 50 μM (50 μM compound, Table 13): 56% | % inh @ 50 μM (Inhibition of EPO binding to EBP-Ig) (0.5 nM [125I]EPO): 56% | IC50 [1]: 100 µM

COC(=O)C(CCCCN)N(Cc1ccc(OCc2ccccc2)cc1)Cc1cccc(NC(=O)c2ccc(C)cc2)c1 (stereo not shown) [compound 118]
IC50: 10 µM | IC30 μM (Inhibition of EPO binding to EBP-Ig) (0.5 nM [125I]EPO): 2 µM | inhibition at 50 µM [2]: 36% | inhibition at 50 µM [3]: 36%

COC(=O)C(CCCCN)N(Cc1ccc(OCc2ccccc2)cc1)Cc1cccc([N+](=O)[O-])c1 (stereo not shown) [compound 114]
IC30 μM (Inhibition of EPO binding to EBP-Ig) (0.5 nM [125I]EPO): 10 µM | inhibition at 50 µM [2]: 37% | inhibition at 50 µM [3]: 37%

O=C(O)C(CO)NCC=Cc1cccc(Oc2ccccc2)c1 (stereo not shown) [cpd 347, N-(3-phenoxycinnamyl)Ser-OH]
EPO/EBP-Ig % inh @ 50 μM (50 μM compound, Table 20A): 23%

CC(=O)O.COC(=O)[C@H](CO)N(C/C=C/c1ccc(-c2ccccc2)cc1)C/C=C/c1ccc(-c2ccccc2)cc1 [compound 295]
EPO/EBP-Ig % inh @ 50 μM (50 μM compound, Table 16A): 10%

CC(C(=O)O)N(CC=Cc1cccs1)CC=Cc1cccs1 (stereo not shown) [compound 54]
EPO/EBP-Ig % inh @ 50 μM (Table 3, 50 μM): 18%

COC(=O)C(CCCCNC(=O)OC(C)(C)C)N(Cc1ccc(OCc2ccccc2)cc1)Cc1cccc([N+](=O)[O-])c1 (stereo not shown) [cpd 113, N-(4-Benzyloxybenzyl)-N-(3-nitrobenzyl)Lys(Boc)-OMe]
EPO/EBP-Ig % inh @ 50 μM (Table 7, 50 μM): 24%

COC(=O)C(CCCCN)N(Cc1ccc(OCc2ccccc2)cc1)Cc1cccc(NC(=O)c2ccc3ccccc3c2)c1 (stereo not shown) [compound 121]
IC30 μM (Inhibition of EPO binding to EBP-Ig) (0.5 nM [125I]EPO): 6 µM | % inh @ 50 μM (Inhibition of EPO binding to EBP-Ig) (0.5 nM [125I]EPO): 45% | EPO/EBP-Ig % inh @ 50 μM (Table 7, 50 μM): 45%

O=C(NCCCCC(C(=O)OCc1ccccc1)N(CC=Cc1cccs1)CC=Cc1cccs1)OCc1ccccc1 (stereo not shown) [compound 57]
EPO/EBP-Ig % inh @ 50 μM (Table 3, 50 μM): 0%

O=C(O)C(F)(F)F.O=C(O)[C@H](CO)NC/C=C/c1ccc(-c2ccccc2)cc1 [compound 348]
EPO/EBP-Ig % inh @ 50 μM (50 μM compound, Table 20A): 21%

NCCCCC(C(=O)NCCc1ccccc1)N(CC=Cc1ccccc1)CC=Cc1ccccc1 (stereo not shown) [compound 227]
IC30 μM (Inhibition of EPO binding to EBP-Ig) (0.5 nM [125I]EPO): 20 µM | inhibition at 50 µM [2]: 48% | inhibition at 50 µM (read-out: EPO/EBP-Ig % inh @ 50 μM, 50 μM compound, Table 10): 48% | IC50 [1]: 50 µM

Cc1ccc(C(=O)Nc2cccc(CN(Cc3cccc(Oc4ccccc4)c3)C(CCC(=O)O)C(=O)NCCOCCOCCNC(=O)C(CCC(=O)O)N(Cc3cccc(NC(=O)c4ccc(C)cc4)c3)Cc3cccc(Oc4ccccc4)c3)c2)cc1 (stereo not shown) [compound 249]
IC30 μM (Inhibition of EPO binding to EBP-Ig) (0.5 nM [125I]EPO): 7 µM | % inh @ 50 μM (Inhibition of EPO binding to EBP-Ig) (0.5 nM [125I]EPO): 72% | EPO/EBP-Ig % inh @ 50 μM (Table 11, 50 μM): 72% | IC50 [1]: 10 µM

From patent US7153869B2, “Substituted amino acids as erythropoietin mimetics” (priority 1998, dated 2006)
